Source: patent publication US20220133767A1, “TARGETING MICRORNAS TO OVERCOME DRUG TOLERANCE AND RESISTANCE” (Beth Israel Deaconess Medical Center, Inc., priority 2019, published 2022)
Entries after “also recorded” stand apart in the source; their conditions may differ.

Key:
H1975 cells [1] = experiment: Cell viability of osimertinib-treated H1975 cells co-incubated with SDH inhibitor dimethyl malonate; type: cell-based, human; settings: 100 nM osimertinib co-incubated with 0, 0.03, 0.1 mM DMM for 3 days
Description: (§1) Compound Treatment. Cell viability experiments were performed in 96-well format using opaque white plates (Corning). For 2D monolayer cell cultures and organoids, cells were plated into 96-well plates with 100-2000 cells per well in three-four replicates on day 0. Twenty-four hours after seeding, cells or organoids were exposed to compounds at indicated concentrations for 72 hours. Cellular ATP levels (as a surrogate for viability) were measured using CeliTiter-Glo (Cat #G7570, Promega) or CeliTiter-Glo 3D (Cat #G9681, Promega). For co-treatment experiments, spent medium was removed 24 hours after cell seeding and replaced with medium containing a single concentration of the modulator of interest (for example, osimertinib).

[2] = tested on: pseudohypoxia genes in H1975 cells; experiment: qRT-PCR analysis of hypoxia (pseudohypoxia) gene expression; type: cell-based, human
Description: Transfection by LNAs in vitro. Tumor cells were plated at 2,000 cells in complete growth medium in a 96 well plate to reach 50-60% confluence. 0˜120 nM of fluorescein-conjugated LNA anti-miR-147b (Sequence: […]; SEQ ID NO: 890) (Cat #4100977-011) or negative control (Sequence: TAACACGTCTATACGCCCA; SEQ ID NO: 891) (Cat #199006-011, Exiqon) with PureFection (System Biosciences) were applied for transfection. The transfected cells were harvested after culturing for 48 and 72 hours.

H1975 organoids [3] = experiment: Fractional viability of H1975 organoids treated with osimertinib, LNA miR-147b inhibitor, DMOG, R59949 or combinations for 14 days; type: cell-based, human
Description: (§2) For 3D organoid formation, single-cell suspensions (2000 cells/well/20 μl) were co-plated with geltrex (25 μl) in 96-well non-treated clear plates (Corning, cat #08-772-53). The plate was incubated for 20 minutes at 37° C. followed by adding 100 μl complete growth media. The complete growth media was advanced DMEM/F12 with glutamax (1×), HEPES (1×), 1.25 mM N-Acetylcysteine, 10 mM Nicotinamide, 10 μM Forskolin, B27 (1×), 5 ng/ml Noggin, 100 ng/ml FGF10, 20 ng/ml FGF2, 50 ng/ml EGF, 10 ng/ml PDGFA, 10 ng/ml FGF7, 1% penicillin-streptomycin, and 10 μM Y-27632. Y-27632 was used only for the initial three days because Y27632 is a rock inhibitor preventing apoptosis of single cells (Watanabe et al., Nat. Biotechnol. 25(6):681-686, 2007). PDGFA and FGF7 were not used until day 7 in organoid cultures because they are important for alveolarization during late lung development (Padela et al., Pediatr. Res. 63(3):232-8, 2008; Bostrom et al., Cell 85(6):863-873, 1996). FGF10 is essential for maintenance of lung progenitor cells and branching morphogenesis as well as tissue homeostasis in the adult lung (Sekine et al., Nat. Genet. 21(1):138-141, 1999). […] The organoids were photographed with a microscope (Evos Fla., Life Technology) and their size was measured by ImageJ. […]

PC9 cells = experiment: Single cell clonogenicity / frequency of drug-tolerant clones; settings: 0.1, 0.4 and 2 μM gefitinib (all three groups), 14 days, vehicle 8.3%±0.7%
HCC827 cells = tested on: HCC827 cells
Description: as §1
(§3) Lentiviral-mediated miRNA and VHL Overexpression or Knockdown Infection.

PDX_LU_10 organoids = experiment: Pretreatment response on lung PDX organoids (organoid size); type: cell-based, human
Source text: Patient-derived Xenograft Tumor Specimens. Tumor samples from patient-derived xenografts (PDXs) were generated at The Jackson Laboratory and the Yale Cancer Center by subcutaneous implantation of previously passaged tumors in up to 5 female NSG mice. When tumor samples reached 1000 mm^3 they were shipped to the laboratory in frozen media of DMEM with 90% FBS and 10% DMSO in dry ice. Samples were washed with cold phosphate buffer saline (PBS) with antibiotics (Sigma-Aldrich, St. Louis, Mo.) three times, chopped with a sterile blade, and incubated in 0.001% deoxyribonuclease (DNase) (Sigma-Aldrich, St. Louis, Mo.), 1 mg/ml collagenase/dispase (Roche, Indianapolis, Ind.), 200 U/ml penicillin, 200 μg/ml streptomycin, 0.5 μg/ml amphotericin B (2% antibiotics, Sigma) in DMEM/F12 medium (GIBCO, Grandlsland, N.Y.) at 37° C. water bath for 3 hours with intermittent shaking. After incubation, the suspensions were repeatedly triturated, passed through 70 μm and 40 μm cell-strainers (BD Falcon, San Jose, Calif.), and centrifuged at 122 g for 5 minutes at 4° C. Cells were resuspended in red blood cell lysis buffer (eBioscience, San Diego, Calif.) for 4 minutes at room temperature with intermittent shaking, before resuspension in serum-free medium. After lysis, cell viability was evaluated by trypan blue dye exclusion.
(§4) The plate was incubated for 20 minutes at 37° C. followed by adding 100 μl complete growth media. […] The media was changed every three days in 24 days. The organoids were photographed with a microscope (Evos Fla., Life Technology) and their size was measured by ImageJ.
Transfection by LNAs in vitro. Tumor cells were plated at 2,000 cells in complete growth medium in a 96 well plate to reach 50-60% confluence. […] The transfected cells were harvested after culturing for 48 and 72 hours.

H1975 organoids [4] = experiment: Organoid number after lentiviral miR-147b inhibition and/or osimertinib; type: cell-based, human
Description: as §4, §3

H1975 cells [5] = experiment: Cell viability of H1975 cells with HIF1A or EPAS1 knockdown or HIF1A A588T treated with osimertinib; type: cell-based, human; settings: 3 days
Description: HIF1A and EPAS1 shRNAs and cDNA transfection. H1975 cells were seeded in a 6-well plate at 100,000 cells per well one day prior to transfection. A mixture of 2.5 μg pGFP-C-shLenti vector targeting HIF1A (OrGene, Cat #320380), EPAS1 (OriGene, Cat #TL315484), scrambled negative control (Cat #TR30021), lentiviral vector targeting HIF1A mutantA588T (OrGene, Cat #RC402571), control vector and 7.5 μL of PureFection (System Biosciences, Cat #LV750A-1) were used for transfection. The transfected cells were selected and maintained in 0.5 μg/ml puromycin (for shRNAs) or 600 μg/ml neomycin (for HIF1A A5887) in DMEM containing with 10% FBS for 9 days. Then the stable cells were passaged into 96-well plate at 3,000 cells per well followed by treatment with 100 nM osimertinib for 3 days. hsa-HIF1A targeting sequences: shRNA 1: […] (SEQ ID NO: 892), shRNA 2: […] (SEQ ID NO: 893), shRNA 3: […] (SEQ ID NO: 894), shRNA 4: […] (SEQ ID NO: 895). hsa-EPAS1 targeting sequences: shRNA 1: […] (SEQ ID NO: 896), shRNA 2: […] (SEQ ID NO: 897), shRNA 3: […] (SEQ ID NO: 898), shRNA 4: […] (SEQ ID NO: 899).

H1975 organoids [6] = experiment: Osimertinib treatment response (cell viability) on H1975 organoids transfected with LNA miR-147b inhibitor; type: cell-based, human; settings: 120 nM LNA miR-147b inhibitor
Description: as §2

Compound: COC(=O)CC(=O)OC [DMM, dimethyl malonate]
- drug-tolerance to osimertinib (cell viability) (H1975 cells [1]): promotes drug-tolerance; also recorded: effectively rescued

Compound: COC(=O)CNC(=O)C(=O)OC [DMOG, dimethyloxaloylglycine]
- pseudohypoxia gene levels reduced by miR-147b knockdown, on co-treatment with DMOG ([2]; H1975, 90 nM LNA miR-147b inhibitor + 10 μM DMOG): rescued significantly
- expression of pseudohypoxia genes ([2]; H1975, single dose of 10 μM DMOG vs vehicle): upregulated expression
- osimertinib-tolerance (fractional viability) on co-treatment with DMOG (H1975 organoids [3]; osimertinib 25 nM, LNA-anti147b 90 nM, DMOG 10 μM): rescued reduced osimertinib-tolerance

Compound: O=c1c2ccccc2[nH]c(=S)n1CCN1CCC(=C(c2ccc(F)cc2)c2ccc(F)cc2)CC1 [R59949]
- pseudohypoxia gene levels reduced by LNA-miR-147b inhibitor, on co-treatment with R59949 ([2]; H1975 cells, 90 nM LNA miR-147b inhibitor + 30 μM R59949, three days): further inhibited
- expression of pseudohypoxia genes ([2]; H1975 cells, single dose of 30 μM R59949 vs vehicle): downregulation

Compound: COc1cc2ncnc(Nc3ccc(F)c(Cl)c3)c2cc1OCCCN1CCOCC1 [gefitinib]
- frequency of colony formation (PC9 cells): 3.6%±0.3

Compound: C=CC(=O)Nc1cc(Nc2nccc(-c3cn(C)c4ccccc34)n2)c(OC)cc1N(C)CCN(C)C [osimertinib]
- enhancement of drug-tolerance at the half-maximum inhibitory concentration (IC50) by enforced overexpression of miR-147b (HCC827 cells): 60 fold
- decrease of size of the tumor organoids (PDX_LU_10 organoids; 25 nM osimertinib on day 1 and 4, day 6): 50%
- increase (recovery) of organoid size (PDX_LU_10 organoids; 25 nM osimertinib on day 1 and 4, day 14): 40%
- decrease of total number of organoids compared with the control group (H1975 organoids [4]): two-fold
- increase of drug-tolerance towards osimertinib upon overexpression of HIF1A A588T (H1975 cells [5]; 100 nM osimertinib): up to two-fold
- increase of cell sensitivity towards osimertinib upon HIF1A knockdown (H1975 cells [5]; lentiviral shRNAs against HIF1A, 100 nM osimertinib): up to 2.6 fold
- drug sensitivity towards osimertinib upon HIF2A knockdown (H1975 cells [5]; lentiviral shRNAs against HIF2A/EPAS1, 100 nM osimertinib): did not change

Compound: LNA miR-147b inhibitor: fluorescein-conjugated LNA anti-miR-147b, sequence AGCAGAAGCATTTCCGCACA (SEQ ID NO: 890), Cat #4100977-011 (LNA-modified, fluorescein conjugated, pattern and position not given here)
- expression levels of pseudohypoxia genes ([2]; H1975 cells, 90 nM LNA miR-147b inhibitor, three days, vs scrambled control): reduced expression levels
- decrease of osimertinib-tolerance compared with control cells (PDX_LU_10 organoids; 90 nM LNA miR-147b inhibitor on day 0 and day 2 + 25 nM osimertinib, day 8): 80%
- PDX organoids volume increase, as % of that in control cells with the single agent of osimertinib (PDX_LU_10 organoids; LNA miR-147b inhibitor pretreatment + osimertinib, day 8 to day 14): no more than 10%
- osimertinib-tolerance (fractional viability) (H1975 organoids [3]; osimertinib 25 nM + LNA-anti147b 90 nM): reduced osimertinib-tolerance
- decrease of IC50 for osimertinib / increase of sensitivity of drug-tolerant organoids to osimertinib, compared to scrambled control (H1975 organoids [6]): 30 fold
